Source: US5807855A, “1-piperazino-1,2-dihydroindene derivatives” (priority 1992, dated 1998)
Entries after “also recorded” stand apart in the source; their conditions may differ. Where two headings read alike, the source gives them in different places.

What was measured:
5-HT2 = conditions: cited from earlier work
[1] = cited from earlier work; for extrapyramidal side effects (in words): at higher D2 occupancies needed to control psychosis
[2] = Psychopharmacology 1985, 86, 303-305; cited from earlier work
DA D1 receptor [3] = conditions: 3H-piflutixol; D2 by 3H-spiperone; Drug. Dev. Res. 1986, 7, 35-47; cited from earlier work
DA uptake [4] = conditions: cited from earlier work
DA D1 receptor [5] = molecular target: T1, DA D1 receptor (Rattus norvegicus, UniProt P18901); assay: biochemical; type: binding; conditions: IC50, D1 3H-SCH
D1 = conditions: 3H-SCH 23390; Drug. Dev. Res. 1988, 15, 389-404; cited from earlier work
DA D2 receptors = molecular target: T2, DA D2 receptors (Rattus norvegicus, UniProt P61169); assay: Inhibition of 3H-spiperone binding to DA D2 receptors in rat striatal membranes; conditions: IC50, D2 3H-Spi
T2 construct: DA D2 receptors in rat striatal membranes; from tissue; host or cells: rat striatal membranes

5-HT2 receptors = molecular target: T3, 5-HT2 receptors (Rattus norvegicus, UniProt P14842); assay: Inhibition of 3H-ketanserin binding to 5-HT2 receptors in membranes from rat cortex; conditions: Receptor Binding, IC50, 5-HT2 3H-Ket
T3 construct: 5-HT2 receptors in membranes from rat cortex; from tissue; host or cells: membranes from rat cortex
Procedure: Receptor binding studies.
5-HT2 receptors. Inhibition of ^3 H-ketanserin binding to 5-HT2 receptors in membranes from rat cortex was determined as described by Hyttel, J. Acta. Pharmacol. Toxicol.

DA uptake [6] = assay: Inhibition of DA uptake in vitro; type: biochemical
Procedure: Inhibition of DA Uptake in Vitro was determined as described by K. P. B.o slashed.ges.o slashed., J. Med. Chem. 1983, 26, 935-947.

[7] = Cataleptogenic effect in rats; conditions: rat, in vivo, maximum effect 1-6 h after administration, read-out: ED50 in the catalepsy test
Procedure: Cataleptogenic effect in rats.
Catalepsy was measured every hour 1-6 h after test drug administration on a vertical wire grid and defined as being present after at least 15-simmobility. The maximum effect between 1-6 h after administration was reported. A total of 8-12 animals were used per dose.

DA D1 receptor [8] = molecular target: T1, DA D1 receptor; assay: Antagonism of SK&F 38393-induced circling behavior in rats with unilateral 6-OHDA lesions; type: in vivo; set-up: circling behavior in rats with unilateral 6-OHDA lesions; from tissue; host or cells: living rats with unilateral 6-OHDA lesions; conditions: 2 h
Procedure: Antagonism of SK&F 38393-induced circling behavior in rats with unilateral 6-OHDA lesions.
This test is a test for the DA D1 receptor antagonistic effect in vivo.
The experiments were performed as described by Arnt, J. and Hyttel, J. J. Neural. Transm. 1986, 67, 225-240. The experiments were done 2-9 months after lesioning when stable contralateral circling response to 2,3,4,5-tetrahydro-7,8-dihydroxy-1-phenyl-1H-3-benzazepine, hydrochloride (SK&F 38393) (4.3 μmol/kg=1.4 mg/kg) were obtained. The test compounds were injected 2 h before administration of SK&F 38393. Antagonistic effect were calculated as percent inhibition of control responses for each rat. Four to eight animals were used per dose.

[9] = rat striatal membranes, 3H-spiperone, read-out: Receptor Binding

T3 sequence (P14842 whole entry): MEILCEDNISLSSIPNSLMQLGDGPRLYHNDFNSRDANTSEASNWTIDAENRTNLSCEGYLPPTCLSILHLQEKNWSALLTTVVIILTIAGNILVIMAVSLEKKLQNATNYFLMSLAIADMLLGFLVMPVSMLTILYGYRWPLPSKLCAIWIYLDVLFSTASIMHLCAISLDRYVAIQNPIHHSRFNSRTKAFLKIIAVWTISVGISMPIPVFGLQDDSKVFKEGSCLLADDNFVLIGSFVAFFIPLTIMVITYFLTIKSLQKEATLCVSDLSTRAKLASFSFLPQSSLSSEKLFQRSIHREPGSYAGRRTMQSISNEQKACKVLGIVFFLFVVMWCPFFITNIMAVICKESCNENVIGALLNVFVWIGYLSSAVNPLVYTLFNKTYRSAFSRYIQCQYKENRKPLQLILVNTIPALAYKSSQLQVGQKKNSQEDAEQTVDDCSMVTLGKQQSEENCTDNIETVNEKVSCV
T1 sequence (P18901 whole entry): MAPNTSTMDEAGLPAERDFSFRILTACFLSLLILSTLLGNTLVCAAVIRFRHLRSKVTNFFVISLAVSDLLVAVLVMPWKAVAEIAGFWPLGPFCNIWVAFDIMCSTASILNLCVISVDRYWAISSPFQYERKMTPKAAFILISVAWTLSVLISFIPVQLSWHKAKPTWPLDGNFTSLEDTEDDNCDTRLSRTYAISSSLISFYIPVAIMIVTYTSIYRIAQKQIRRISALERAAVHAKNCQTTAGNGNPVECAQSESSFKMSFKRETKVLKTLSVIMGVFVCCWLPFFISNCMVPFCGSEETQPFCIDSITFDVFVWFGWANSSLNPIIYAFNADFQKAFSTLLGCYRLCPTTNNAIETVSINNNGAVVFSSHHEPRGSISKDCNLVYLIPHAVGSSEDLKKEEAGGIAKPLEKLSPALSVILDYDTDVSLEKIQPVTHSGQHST
T2 sequence (P61169 whole entry): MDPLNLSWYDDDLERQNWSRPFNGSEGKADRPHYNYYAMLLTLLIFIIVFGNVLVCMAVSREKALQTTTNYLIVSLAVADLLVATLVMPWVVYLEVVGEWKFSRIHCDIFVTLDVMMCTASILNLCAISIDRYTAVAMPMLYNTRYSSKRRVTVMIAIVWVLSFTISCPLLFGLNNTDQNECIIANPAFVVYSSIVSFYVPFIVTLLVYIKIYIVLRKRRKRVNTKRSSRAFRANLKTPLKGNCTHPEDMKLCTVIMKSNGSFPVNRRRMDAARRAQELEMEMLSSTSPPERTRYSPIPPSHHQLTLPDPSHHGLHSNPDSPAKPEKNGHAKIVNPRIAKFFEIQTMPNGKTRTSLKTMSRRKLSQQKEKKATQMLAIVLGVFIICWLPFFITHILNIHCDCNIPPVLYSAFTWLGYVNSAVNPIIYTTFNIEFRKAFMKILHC

Cc1nc2sccn2c(=O)c1CCN1CCC(=C(c2ccc(F)cc2)c2ccc(F)cc2)CC1 [ritanserin]
5-HT2 antagonism (in words) (5-HT2): selective 5-HT2 antagonist
clinical effect (in words) ([1]; patients): shown to be an antidepressant and to improve depressive symptoms of schizophrenia; also recorded: improve the quality of sleep; also recorded: found to relieve neuroleptic-induced parkinsonism
effect in animal test (in words) [2]: exert effects in an animal test reminiscent of anxiolytic activity

OCCN1CCN([C@@H]2C[C@@H](c3ccc(F)cc3)c3ccc(C(F)(F)F)cc32)CC1 (racemic) [Tefludazine]
DA D1 receptor affinity (in words) (DA D1 receptor [3]): substantially lower than the D2 affinity

COC(=O)[C@H]1[C@@H](OC(=O)c2ccccc2)C[C@@H]2CC[C@H]1N2C [cocaine]
DA uptake inhibition (in words) (DA uptake [4]): inhibitor of DA uptake

O=C(CCCN1CCC(O)(c2ccc(Cl)cc2)CC1)c1ccc(F)cc1 [haloperidol]
extrapyramidal side effects (in words) [1]: accompanied by extrapyramidal side effects

O=C1NCCN1CCN1CCN([C@@H]2C[C@@H](c3ccc(F)cc3)c3ccccc32)CC1 [Irindalone, reference compound]
IC50 (DA D1 receptor [5]; read-out: Receptor Binding): 890 nM
D1 affinity (in words) (D1): even lower than the D2 affinity

CN1CCN([C@@H]2C[C@@H](c3ccccc3)c3ccc(Cl)cc32)CC1(C)C (racemic) [Compound 10, (±)-Trans-4-[6-chloro-3-phenyl-2,3-dihydro-1H-inden-1-yl]-1,2,2-trimethylpiperazine]
IC50 (DA D1 receptor [5]; rat striatal membranes, 3H-SCH 23390, read-out: Receptor Binding): 1.6 nM
IC50 (DA D2 receptors; Receptor Binding): 20 nM
IC50 (5-HT2 receptors): 3.2 nM
IC50 (DA uptake [6]): 15 nM

OCCN1CCN(CCCN2c3ccccc3Sc3ccc(Cl)cc32)CC1 [perphenazine]
extrapyramidal side effects (in words) [1]: accompanied by extrapyramidal side effects

Cc1nc2n(c(=O)c1CCN1CCC(C(=O)c3ccc(F)cc3)CC1)CCS2 [setoperone]
5-HT2 antagonism (in words) (5-HT2): 5-HT2 and moderate dopamine receptor antagonist

CN1CCN([C@@H]2C[C@@H](c3ccc(F)cc3)c3ccc(Cl)cc32)CC1(C)C (single isomer, unassigned) [+2, (+) Trans-4-[6-chloro-3-(4-fluorophenyl)-2,3-dihydro-1H-inden-1-yl]-1,2,2-trimethylpiperazine]
IC50 (5-HT2 receptors): 2000 nM
IC50 (DA uptake [6]): 16 nM

CN1CCN([C@@H]2C[C@@H](c3ccc(F)cc3)c3ccc(F)cc32)CC1(C)C (racemic) [Compound 38, (±)-Trans-4-[6-fluoro-3-(4-fluorophenyl)-2,3-dihydro-1H-inden-1-yl]-1,2,2-trimethyl piperazine]
IC50 (DA D1 receptor [5]; Receptor Binding): 0.88 nM
IC50 (DA D2 receptors; [9]): 11 nM
ED50 [7]: > 68 µmol/kg
IC50 (5-HT2 receptors): 3.6 nM
ED50 (DA D1 receptor [8]): 0.5 µmol/kg
IC50 (DA uptake [6]): 9 nM

CN1CCN([C@@H]2C[C@@H](c3ccc(F)cc3)c3cc(Cl)ccc32)CC1(C)C (racemic) [Compound 16, (±)-Trans-4-[5-chloro-3-(4-fluorophenyl)-2,3-dihydro-1H-inden-1-yl]-1,2,2-trimethylpiperazine]
IC50 (DA D1 receptor [5]; Receptor Binding): 37 nM
IC50 (DA D2 receptors; [9]): 340 nM
IC50 (5-HT2 receptors): 9.3 nM
